Here are results for three compounds from ChEMBL document CHEMBL1146485, “Plant substances as anti-HIV agents selected according to their putative mechanism of action” (J Nat Prod, 2004).

For data set [1], the system named is Human immunodeficiency virus 1. Briefly: Selectivity for HIV1 integrase over HIV1 reverse transcriptase.
A short description of data set [2]: Elimination half life in po dosed human. The class given is ADME, organism-based. The settings on record: in vivo, read-out: beta t1/2 (converted).

In data set [1], `O=C(/C=C/c1ccc(O)c(O)c1)O[C@@H](C(=O)O)[C@@H](OC(=O)/C=C/c1ccc(O)c(O)c1)C(=O)O` displayed a fold change (FC) of 10.

For `O=C(/C=C/c1ccc(O)c(O)c1)O[C@@H]1C[C@](O)(C(=O)O)C[C@@H](OC(=O)/C=C/c2ccc(O)c(O)c2)[C@H]1O`, in data set [1], the fold change (FC) is 10.

With `CCCc1cc(=O)oc2c3c(c4c(c12)OC(C)(C)C=C4)O[C@H](C)[C@@H](C)[C@@H]3O` [CALANOLIDE A], the half-life in data set [2] was 15 h.
